Drawing on PubChem BioAssay (NCI), this text covers GI50 and TGI for seven compounds.

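These data come from cells grown in 96-well plates and exposed to compound for 48 hours at five concentrations. Here, GI50 denotes the concentration required for 50% inhibition of growth. Definition used: TGI = concentration required for complete inhibition of growth.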

Among the test systems are RPMI-8226 leukemia; HS 578T breast; NCI-H460 lung; HOP-62 NSCLC; MDA-MB-231 breast; UACC-257 melanoma; MDA-MB-435; LOX IMVI melanoma; HCT-15 colon; ACHN renal.
Holding throughout (assay): NCI-60 cell line screen, 48 h

Take `C=C(C(=O)c1ccccc1)C(NC(C)(C)C)c1ccccc1` (stereo not given): the GI50 was 1.84 µM in the experiment with RPMI-8226 leukemia; 5.56 µM in the experiment on HS 578T breast; 2.15 µM in the experiment on NCI-H460 lung; 3.38 µM in the experiment on HOP-62 NSCLC; 2.06 µM in the experiment on MDA-MB-231 breast; 1.69 µM in the experiment with UACC-257 melanoma. Moreover, the GI50 with MDA-MB-435 is 2.11 µM; with LOX IMVI melanoma, 1.46 µM; in the experiment with HCT-15 colon it was 1.88 µM; with ACHN renal it was 1.59 µM. The TGI is 6.44 µM in the experiment with RPMI-8226 leukemia; 75.9 µM in the experiment on HS 578T breast; 5.23 µM in the experiment on NCI-H460 lung; 10.4 µM in the experiment with HOP-62 NSCLC; 4.84 µM with MDA-MB-231 breast; 4.81 µM in the experiment with UACC-257 melanoma. Also, the TGI in the experiment on MDA-MB-435 was 11 µM; in the experiment on LOX IMVI melanoma it was 2.97 µM; in the experiment on HCT-15 colon, 10 µM; with ACHN renal it was 4.51 µM.
`Cc1[nH]c(C(=O)Nc2cccc(OC3CCNCC3)c2)c(Cl)c1Cl`: the GI50 in the experiment with RPMI-8226 leukemia is 2.05 µM; in the experiment with HS 578T breast, 2.02 µM; in the experiment on NCI-H460 lung, 1.95 µM; in the experiment with HOP-62 NSCLC it was 1.9 µM; in the experiment on MDA-MB-231 breast, 1.74 µM; in the experiment with UACC-257 melanoma it was 1.76 µM. In addition, the GI50 in the experiment on MDA-MB-435 is 1.81 µM; in the experiment with LOX IMVI melanoma, 1.66 µM; with HCT-15 colon, 1.73 µM; in the experiment on ACHN renal, 1.75 µM. The TGI in the experiment with RPMI-8226 leukemia is 4.59 µM; with HS 578T breast, 5.16 µM; with NCI-H460 lung, 3.7 µM; in the experiment with HOP-62 NSCLC, 4.53 µM; with MDA-MB-231 breast, 3.45 µM; in the experiment with UACC-257 melanoma, 3.55 µM. The TGI in the experiment on MDA-MB-435 stood at 3.3 µM; with LOX IMVI melanoma, 3.16 µM; with HCT-15 colon it was 3.36 µM; with ACHN renal, 3.17 µM.
Take `COc1ccc(-c2nc3sccn3c2-c2ccnc(NCCNS(=O)(=O)c3ccc(C(F)(F)F)cc3)n2)cc1`: the GI50 in the experiment with RPMI-8226 leukemia was 0.626 µM; with HS 578T breast, 2.35 µM; with NCI-H460 lung, 2 µM; in the experiment with HOP-62 NSCLC, 13.7 µM; in the experiment on MDA-MB-231 breast, 1.22 µM; in the experiment on UACC-257 melanoma, 4.41 µM. Further, the GI50 is 1.44 µM in the experiment on MDA-MB-435, 3.26 µM in the experiment with LOX IMVI melanoma, 2.59 µM in the experiment on HCT-15 colon and 2.58 µM in the experiment on ACHN renal. The TGI with RPMI-8226 leukemia is 5.53 µM; in the experiment on HS 578T breast, more than 100 µM; in the experiment on NCI-H460 lung, 11.6 µM; with HOP-62 NSCLC, more than 100 µM; in the experiment on MDA-MB-231 breast, 42.5 µM; in the experiment with UACC-257 melanoma, more than 100 µM. The TGI was 5.88 µM with MDA-MB-435, 19.2 µM in the experiment on LOX IMVI melanoma, more than 100 µM in the experiment with HCT-15 colon and more than 100 µM in the experiment with ACHN renal.
On to `COc1cc(-c2oc3c(OC)c(O)c(OC)c(O)c3c(=O)c2OC)cc(OC)c1OC`, for which the TGI in the experiment on RPMI-8226 leukemia was more than 100 µM; with HS 578T breast, 64.9 µM; in the experiment on NCI-H460 lung, more than 100 µM; in the experiment on HOP-62 NSCLC it was more than 100 µM; in the experiment with MDA-MB-231 breast, more than 100 µM; in the experiment on UACC-257 melanoma it was more than 100 µM. For the same compound, the TGI in the experiment on MDA-MB-435, with LOX IMVI melanoma, in the experiment on HCT-15 colon and in the experiment on ACHN renal was more than 100 µM in each case.
Consider `COc1ccc(N=Nc2ccc(O)c(=O)cc2)cc1`, for which the GI50 is 2.68 µM in the experiment with RPMI-8226 leukemia; 4.41 µM in the experiment on HS 578T breast; 1.79 µM in the experiment with NCI-H460 lung; 4.19 µM with HOP-62 NSCLC; 4.62 µM with MDA-MB-231 breast; 3.12 µM with UACC-257 melanoma. The GI50 in the experiment on MDA-MB-435 was 4.02 µM; in the experiment with LOX IMVI melanoma, 2.44 µM; in the experiment with HCT-15 colon, 2.55 µM; in the experiment with ACHN renal, 3.37 µM. The TGI with RPMI-8226 leukemia was 43.7 µM; with HS 578T breast, more than 100 µM; in the experiment with NCI-H460 lung, 18.9 µM; in the experiment with HOP-62 NSCLC, 41.8 µM; in the experiment with MDA-MB-231 breast it was more than 100 µM; with UACC-257 melanoma it was more than 100 µM. Moreover, the TGI with MDA-MB-435 was more than 100 µM; in the experiment on LOX IMVI melanoma, 27 µM; with HCT-15 colon it was more than 100 µM; in the experiment with ACHN renal, more than 100 µM.
In the case of `N#CC1=C(N)N=C(N2CCOCC2)C(C#N)C12Nc1ccccc1S2` (stereo not given), the GI50 is 16 µM with RPMI-8226 leukemia; 1.75 µM in the experiment with HS 578T breast; 16.6 µM in the experiment with NCI-H460 lung; 61.4 µM in the experiment with HOP-62 NSCLC; 26.7 µM in the experiment on MDA-MB-231 breast; 28 µM in the experiment on UACC-257 melanoma. Also, the GI50 was 22.9 µM with MDA-MB-435, 16.5 µM with LOX IMVI melanoma, 29.1 µM in the experiment on HCT-15 colon and 21.8 µM in the experiment with ACHN renal. For the same compound, the TGI in the experiment with RPMI-8226 leukemia is 88.5 µM; with HS 578T breast, 7.17 µM; with NCI-H460 lung, 37.1 µM; in the experiment with HOP-62 NSCLC, more than 100 µM; in the experiment on MDA-MB-231 breast it was more than 100 µM; in the experiment with UACC-257 melanoma, 89.1 µM. The TGI is 61.1 µM in the experiment with MDA-MB-435, 41.1 µM with LOX IMVI melanoma, more than 100 µM with HCT-15 colon and 76 µM in the experiment on ACHN renal.
Regarding `O=C(/C=C(/C=C/c1cccc2[nH]ccc12)OB(F)F)/C=C/c1cccc2[nH]ccc12`, the GI50 in the experiment on RPMI-8226 leukemia is 0.354 µM; with HS 578T breast, 1.5 µM; in the experiment with NCI-H460 lung, 0.684 µM; in the experiment with HOP-62 NSCLC it was 2.31 µM; with MDA-MB-231 breast, 1.55 µM; with UACC-257 melanoma, 2.15 µM. Also, the GI50 in the experiment on MDA-MB-435 is 0.475 µM; with LOX IMVI melanoma, 0.348 µM; with HCT-15 colon, 0.348 µM; in the experiment with ACHN renal, 0.514 µM. The TGI with RPMI-8226 leukemia is 2.55 µM; with HS 578T breast it was more than 100 µM; in the experiment on NCI-H460 lung, 2.91 µM; in the experiment with HOP-62 NSCLC, 9.4 µM; in the experiment with MDA-MB-231 breast, 5.19 µM; in the experiment with UACC-257 melanoma it was 11.8 µM. In addition, the TGI was 2.55 µM with MDA-MB-435, 1.02 µM in the experiment with LOX IMVI melanoma, 1.49 µM in the experiment on HCT-15 colon and 2.04 µM in the experiment with ACHN renal.
